Assay results: article PMC7226075, “A Novel Serine Protease Inhibitor PE-BBI Ameliorates Cockroach Extract-Mediated Airway Epithelial Barrier Dysfunction” (Biomolecules, 2020)
“Also recorded” adds a separate entry of the source.

What was measured:
recombinant trypsin = assay: Inhibition of recombinant trypsin, fluorogenic peptide substrate-based activity assay; type: biochemical; conditions: Boc-QAR-NH2Mec 50 µM, λex 380/λem 460 nm, 37 °C, 100 μL, inhibitors 0.01–10 μM, four-parameter logistic fit; mean (95% CI) in Figure 1B, n ≥ 4
Experimental: (§1) Cleavage of the fluorogenic peptide substrate Boc-QAR-NH2Mec (50 µM final concentration) (R&D Systems) was used to assay TLP activity with the rate of substrate hydrolysis continuously recorded at λex 380 nm and λem 460 nm using a FLUOstar Optima microplate reader (BMG Labtech). All inhibition assays were performed in microtitre plates maintained at 37 °C in a final volume of 100 μL. Curve fitting and pIC50 (-logIC50) determinations were carried out by fitting to a four-parameter logistic equation (GraphPad Prism).

[1] = system: 16HBE cell surface TLP activity; assay: 16HBE cell surface TLP activity assay; type: cell-based, human; conditions: polarised 16HBE, inhibitor 50 µM, Boc-QAR-NH2Mec 50 µM apical, 1 h continuous, λex 380/λem 460 nm; n = 7, mean ± SEM
Experimental: Studies were performed using a SV-40-transformed human bronchial epithelial cell line (16HBE14o^-). The 16HBE cells were grown on collagen-coated T75 flasks (Corning) using bronchial epithelial growth medium (BEGM) (Lonza), in a humidified cell culture incubator supplemented with 5% CO2. After trypsinization, cells (5 × 10^5 cells/cm^2) were seeded onto semipermeable transwell filters (Corning) in BEGM and allowed to grow at liquid–liquid interface for 2 days then switched to DMEM/F-12 medium supplemented with 2% (v/v) Ultroser G (Pall-BioSpera) for a further 2 days (liquid–liquid interface), at which point cultures were exposed to air–liquid interface conditions for a further 5–7 day period, whereupon experiments were conducted.
Polarised 16HBE cells grown on transwell semi-permeable filters were used to assess cell surface TLP activity. Apical cell-surface (membrane-attached) proteolytic activity was measured in stringently washed (using PBS) cells via direct addition of a fluorogenic peptide substrate (50 µM Boc-QAR-–NH2Mec) to the apical compartment with continuous measurement of the formation of –NH2Mec (at λex 380 nm and λem 460 nm) over a 1 h period. Surface activity was determined in the presence and absence of protease inhibitors (GM, pLR-HL or PE-BBI) which were added at a final concentration of 50 µM.

16HBE cells = assay: Cell viability assay (RealTime-Glo MT), submerged 16HBE cells; type: cell-based, human; conditions: CRE 16.5 µg protein/well, 24 h, inhibitor 50 µM, n = 6
Experimental: Cell viability was measured in submerged 16HBE cells using the non-lytic and homogeneous RealTime-Glo MT Cell Viability Assay (Promega) as per the manufacturer’s instructions.

BEAS-2B cells = conditions: ref [13], cited from earlier work
[2] = system: cockroach extract (CRE) trypsin-like protease (TLP) activity; assay: Inhibition of CRE trypsin-like protease (TLP) activity, fluorogenic peptide substrate-based assay; type: biochemical, German cockroach; conditions: Boc-QAR-NH2Mec 50 µM, λex 380/λem 460 nm, 37 °C, 100 μL, inhibitors 0.01–10 μM, four-parameter logistic fit; mean (95% CI) in Figure 1B, n ≥ 4
Experimental: Whole-body German cockroach extract was sourced from Greer Laboratories (USA). All other reagents were obtained from Sigma-Aldrich unless otherwise indicated.
as §1

## CCOC(=O)c1ccc(OC(=O)CCCCCN=C(N)N)cc1.CS(=O)(=O)O [GM, gabexate mesylate]
Recombinant trypsin
  pIC50 (-logIC50) vs recombinant trypsin: 6.76
[1]
  Effect on 16HBE cell surface TLP activity: significantly reduced
16HBE cells
  Rescue of CRE-induced cell damage (viability): failed to do so; also recorded: trend towards modest protection of cells by GM, and pLR-HL, but this was not statistically significant
BEAS-2B cells; previous study
  CRE-induced airway epithelial cell damage in presence of GM: ameliorates CRE-induced airway epithelial cell damage
BEAS-2B cells
  CRE-mediated cell damage and inflammation in presence of GM: reduced CRE-mediated cell damage and inflammation
[2]
  pIC50 (-logIC50) vs CRE TLP activity: ~ 6.7
